“Also recorded” adds a separate entry of the source.
Assays:
MptpB = molecular target: T1, MptpB (Mycobacterium tuberculosis, UniProt I6WXK4); type: biochemical, M. tuberculosis; details: pH 5.6
T1 construct: made in house; host or cells: E. coli BL21 (pGEX-5X-3)

MptpA = molecular target: T2, MptpA (Mycobacterium tuberculosis, UniProt P9WIA1); type: biochemical, M. tuberculosis; details: pH 7
T2 construct: made in house; host or cells: E. coli BL21 (pGEX-5X-3)
T2 sequence (P9WIA1 whole entry): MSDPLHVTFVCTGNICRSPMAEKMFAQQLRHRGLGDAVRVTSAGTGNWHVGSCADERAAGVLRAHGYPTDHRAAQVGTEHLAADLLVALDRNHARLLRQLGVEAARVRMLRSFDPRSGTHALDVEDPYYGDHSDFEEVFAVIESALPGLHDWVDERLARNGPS

T1 sequence (I6WXK4 whole entry, looked up): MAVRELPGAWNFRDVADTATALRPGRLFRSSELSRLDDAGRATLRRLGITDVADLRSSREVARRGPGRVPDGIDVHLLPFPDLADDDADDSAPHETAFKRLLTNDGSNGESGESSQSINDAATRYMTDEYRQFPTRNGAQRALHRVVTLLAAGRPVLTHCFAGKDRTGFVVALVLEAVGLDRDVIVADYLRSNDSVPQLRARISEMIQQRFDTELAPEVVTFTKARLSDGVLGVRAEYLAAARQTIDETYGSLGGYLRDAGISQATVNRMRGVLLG

Structure (SMILES)	Effect of inhibitor on the activity of MptpB towards tyrosine phosphorylated MBP (MptpB)	Effect of inhibitor on the activity of MptpA towards tyrosine phosphorylated MBP (MptpA)
C=C1[C@@H](O)[C@@H]2O[C@]3(CC[C@H](/C=C/[C@@H](C)[C@@H]4CC(C)=C[C@@]5(O[C@H](C[C@@](C)(O)C(=O)O)CC[C@H]5O)O4)O3)CC[C@H]2O[C@@H]1[C@@H](O)C[C@H](C)[C@H]1O[C@@]2(CCCCO2)CC[C@H]1C [okadaic acid]	had no effect; also recorded: did not inhibit	had no effect; also recorded: did not inhibit
[F-].[Na+] [sodium fluoride]	had no effect	had no effect
[Na+].[Na+].[Na+].[O]=[V]([O-])([O-])[O-] [sodium orthovanadate]	inhibited	inhibited
O=C(O)C(O)C(O)C(=O)O (stereo not shown) [tartrate]	had no effect; also recorded: insensitive	had no effect; also recorded: insensitive
c1ccc(C2CN3CCSC3=N2)cc1 (stereo not shown) [tetramisole]	had no effect; also recorded: insensitive	had no effect; also recorded: insensitive
